Numbers after ± are expanded uncertainties.

For this series the following is noted: Liquid; Ebulliometric method (Recirculating still).
Regarding `CCCCCCC` [heptane], the Normal boiling temperature turned out to be 98.49 ± 0.2 °C.

Consider `Cc1ccsc1` [3-methylthiophene], for which the Normal boiling temperature worked out at 115.20 ± 0.2 °C.

`CCC(C)C` [2-methylbutane]: the Normal boiling temperature worked out at 28.00 ± 0.21 °C. Consider `CC(C)=C(C)C` [2,3-dimethyl-2-butene], for which the Normal boiling temperature was 73.00 ± 0.2 °C. The same measure for `Cc1ccccc1` [toluene]: 110.54 ± 0.2 °C.

The record behind these values is the NIST ThermoML archive (doi:10.1016/j.fluid.2012.02.005).
